The subject of assay [1] is antibodies in sera from SARS patients (sera 1a, 1b, 2, 6, 37, 62, London, SARS-yellow, SARS-green). It is filed as binding, human. Details: Binding of serum 6 to linear peptides of protein X1 of SARS-CoV Urbani / Binding of serum 37 to linear peptides of protein X1 of SARS-CoV Urbani / Binding of serum 6 to looped/cyclic peptide (PEPSCAN-ELISA) / Binding of serum 37 to looped/cyclic peptide (PEPSCAN-ELISA) / Binding of serum 37 to looped/cyclic peptides of protein X1 of SARS-CoV Urbani / Binding of serum 6 to linear peptides of protein X2 / Binding of serum 37 to linear peptides of protein X2 / Binding of serum 37 to looped/cyclic peptides of protein X2 of SARS-CoV Urbani / Binding of serum 6 to linear peptides of protein M of SARS-CoV Urbani / Binding of serum 37 to linear peptides of protein M of SARS-CoV Urbani / Binding of serum 6 to looped/cyclic peptides of protein M of SARS-CoV Urbani / Binding of serum 37 to looped/cyclic peptides of protein M of SARS-CoV Urbani / Binding of serum 6 to linear peptides of protein X3 of SARS-CoV Urbani / Binding of serum 37 to linear peptides of protein X3 of SARS-CoV Urbani / Binding of serum 37 to looped/cyclic peptides of protein X3 of SARS-CoV Urbani / Binding of serum 6 to linear peptides of protein X4 of SARS-CoV Urbani / Binding of serum 37 to linear peptides of protein X4 of SARS-CoV Urbani / Binding of serum 37 to looped/cyclic peptides of protein X4 of SARS-CoV Urbani / Binding of serum 6 to linear peptides of protein X5 of SARS-CoV Urbani / Binding of serum 37 to linear peptides of protein X5 of SARS-CoV Urbani / Binding of serum 37 to looped/cyclic peptides of protein X5 of SARS-CoV Urbani / Binding of serum 6 to linear peptides of protein N of SARS-CoV Urbani / Binding of serum 37 to linear peptides of protein N of SARS-CoV Urbani / Binding of serum 6 to linear peptide (PEPSCAN-ELISA) / Binding of serum 1a to looped/cyclic peptides of protein N of SARS-CoV Urbani / Binding of serum 1b to looped/cyclic peptides of protein N of SARS-CoV Urbani / Binding of serum 2 to looped/cyclic peptides of protein N of SARS-CoV Urbani / Binding of serum 6 to looped/cyclic peptides of protein N of SARS-CoV Urbani / Binding of serum 37 to looped/cyclic peptides of protein N of SARS-CoV Urbani / Binding of serum 62 to looped/cyclic peptides of protein N of SARS-CoV Urbani / Binding of serum London to looped/cyclic peptides of protein N of SARS-CoV Urbani / Binding of serum SARS-green to looped/cyclic peptides of protein N of SARS-CoV Urbani: unit not given here.

The subject of assay [2] is control sera (pooled serum of ten healthy LUMC hospital workers; commercial negative donor pooled serum from the Dutch bloodbank). It is filed as binding, human. Further details: Binding of Control serum LUMC to linear peptides / Binding of Control serum Blood-bank to linear peptides / Binding of Control serum LUMC to looped peptides / Binding of Control Serum Blood-Bank to Looped peptides / Binding of Control serum LUMC to linear peptides of the protein M of SARS-CoV Urbani / Binding of Control serum Blood-bank to linear peptides of the protein M of SARS-CoV Urbani / Binding of Control serum LUMC to looped peptides of the protein M of SARS-CoV Urbani / Binding of Control Serum Blood-Bank to Looped peptides of the protein M of SARS-CoV Urbani: unit not given here.

Assay [3] has as its system rabbit serum obtained by immunizing a rabbit with the SARS-CoV strain Frankfurt 1. It is filed as binding. Further details: Binding of a rabbit serum to linear peptides / Binding of a rabbit serum to looped peptides / Rabbit serum linear peptides / Rabbit serum looped peptides / Binding of a rabbit serum to linear peptides of protein N of SARS-CoV Urbani (Rabbit serum linear peptides) / Binding of a rabbit serum to looped/cyclic peptides of protein N of SARS-CoV Urbani (Rabbit serum looped peptides): unit not given here.

For the sequence ARSVSPKLFIRQEEV, in assay [1], the “Binding of serum 1a to linear peptides of protein X4 of SARS-CoV Urbani” value was 0.7, the “Binding of serum 1a to looped/cyclic peptides of protein X4 of SARS-CoV Urbani” value is 0.8, the “Binding of serum 1b to linear peptides of protein X4 of SARS-CoV Urbani” value worked out at 0.6 and the “Binding of serum 1b to looped/cyclic peptides of protein X4 of SARS-CoV Urbani” value turned out to be 0.5. Further, in assay [1], the “Binding of serum 2 to linear peptides of protein X4 of SARS-CoV Urbani” value is recorded as 0.5, the “Binding of serum 2 to looped/cyclic peptides of protein X4 of SARS-CoV Urbani” value turned out to be 0.7, the “Binding of serum 6 to linear peptides of protein X4 of SARS-CoV Urbani” value stood at 0.6 and the “Binding of serum 6 to looped/cyclic peptides of protein X4 of SARS-CoV Urbani” value worked out at 0.5. In assay [1], the “Binding of serum 37 to linear peptides of protein X4 of SARS-CoV Urbani” value was 0.7, the “Binding of serum 37 to looped/cyclic peptides of protein X4 of SARS-CoV Urbani” value came to 0.7, the “Binding of serum 62 to linear peptides of protein X4 of SARS-CoV Urbani” value is given as 0.7 and the “Binding of serum 62 to looped/cyclic peptides of protein X4 of SARS-CoV Urbani” value amounted to 0.6. In assay [1], the “Binding of serum London to linear peptides of protein X4 of SARS-CoV Urbani” value was determined as 0.7, the “Binding of serum London to looped/cyclic peptides of protein X4 of SARS-CoV Urbani” value is 0.3, the “Binding of serum SARS-green to linear peptides of protein X4 of SARS-CoV Urbani” value is 0.6 and the “Binding of serum SARS-green to looped/cyclic peptides of protein X4 of SARS-CoV Urbani” value is listed as 0.6. In addition, in assay [1], the “Binding of serum SARS-yellow to linear peptides of protein X4 of SARS-CoV Urbani” value came out at 0.1 and the “Binding of serum SARS-yellow to looped/cyclic peptides of protein X4 of SARS-CoV Urbani” value turned out to be 0.5. Moreover, in assay [2], the “Binding of Control Serum Blood-Bank to Looped peptides” value was 0.7, the “Binding of Control serum Blood-bank to linear peptides” value was 0.7, the “Binding of Control serum LUMC to linear peptides” value worked out at 0.6 and the “Binding of Control serum LUMC to looped peptides” value was found to be 0.7. For the same sequence, in assay [3], the “Rabbit serum linear peptides” value stood at 0.3 and the “Rabbit serum looped peptides” value was found to be 0.2.

For the sequence ARTRSMWSFNPETNI, in assay [1], the “Binding of serum 1a to linear peptides of protein M of SARS-CoV Urbani” value is given as 0.9, the “Binding of serum 1a to looped/cyclic peptides of protein M of SARS-CoV Urbani” value is listed as 0.7, the “Binding of serum 1b to linear peptides of protein M of SARS-CoV Urbani” value turned out to be 0.8 and the “Binding of serum 1b to looped/cyclic peptides of protein M of SARS-CoV Urbani” value worked out at 0.1. For the same sequence, in assay [1], the “Binding of serum 2 to linear peptides of protein M of SARS-CoV Urbani” value stood at 0.6, the “Binding of serum 2 to looped/cyclic peptides of protein M of SARS-CoV Urbani” value was determined as 0.9, the “Binding of serum 6 to linear peptides of protein M of SARS-CoV Urbani” value worked out at 0.7 and the “Binding of serum 6 to looped/cyclic peptides of protein M of SARS-CoV Urbani” value stood at 0.6. For the same sequence, in assay [1], the “Binding of serum 37 to linear peptides of protein M of SARS-CoV Urbani” value was 0.6, the “Binding of serum 37 to looped/cyclic peptides of protein M of SARS-CoV Urbani” value is recorded as 0.8, the “Binding of serum 62 to linear peptides of protein M of SARS-CoV Urbani” value is listed as 0.5 and the “Binding of serum 62 to looped/cyclic peptides of protein M of SARS-CoV Urbani” value was determined as 0.8. Besides, in assay [1], the “Binding of serum London to linear peptides of protein M of SARS-CoV Urbani” value stood at 0.4, the “Binding of serum London to looped/cyclic peptides of protein M of SARS-CoV Urbani” value came out at 0.2, the “Binding of serum SARS-green to linear peptides of protein M of SARS-CoV Urbani” value worked out at 0.7 and the “Binding of serum SARS-green to looped/cyclic peptides of protein M of SARS-CoV Urbani” value came to 0.1. Moreover, in assay [1], the “Binding of serum SARS-yellow to linear peptides of protein M of SARS-CoV Urbani” value came to 0.3 and the “Binding of serum SARS-yellow to looped/cyclic peptides of protein M of SARS-CoV Urbani” value came out at 0.7. Further, in assay [2], the “Binding of Control Serum Blood-Bank to Looped peptides of the protein M of SARS-CoV Urbani” value was found to be 0.6, the “Binding of Control serum Blood-bank to linear peptides of the protein M of SARS-CoV Urbani” value amounted to 0.7, the “Binding of Control serum LUMC to linear peptides of the protein M of SARS-CoV Urbani” value was 0.9 and the “Binding of Control serum LUMC to looped peptides of the protein M of SARS-CoV Urbani” value was found to be 0.7. Further, in assay [3], the “Rabbit serum linear peptides” value turned out to be 0.2 and the “Rabbit serum looped peptides” value is reported as 0.3.

In the case of ATATIPLQASLPFGW, in assay [1], the “Binding of serum 1a to linear peptides of protein X1 of SARS-CoV Urbani” value was determined as 0.9, the “Binding of serum 1a to looped/cyclic peptide (PEPSCAN-ELISA)” value was 0.6, the “Binding of serum 1b to linear peptides of protein X1 of SARS-CoV Urbani” value worked out at 0.7 and the “Binding of serum 1b to looped/cyclic peptide (PEPSCAN-ELISA)” value worked out at 0.5. For the same sequence, in assay [1], the “Binding of serum 2 to linear peptides of protein X1 of SARS-CoV Urbani” value was determined as 0.7, the “Binding of serum 2 to looped/cyclic peptide (PEPSCAN-ELISA)” value is on record as 0.5, the “Binding of serum 6 to linear peptides of protein X1 of SARS-CoV Urbani” value is 0.7 and the “Binding of serum 6 to looped/cyclic peptide (PEPSCAN-ELISA)” value is on record as 0.5. Moreover, in assay [1], the “Binding of serum 37 to linear peptides of protein X1 of SARS-CoV Urbani” value is reported as 0.7, the “Binding of serum 37 to looped/cyclic peptide (PEPSCAN-ELISA)” value was determined as 0.7, the “Binding of serum 62 to linear peptides of protein X1 of SARS-CoV Urbani” value came to 0.8 and the “Binding of serum 62 to looped/cyclic peptide (PEPSCAN-ELISA)” value is recorded as 0.7. Further, in assay [1], the “Binding of serum London to linear peptides of protein X1 of SARS-CoV Urbani” value was 0.4, the “Binding of serum London to looped/cyclic peptide (PEPSCAN-ELISA)” value turned out to be 0.3, the “Binding of serum SARS-green to linear peptides of protein X1 of SARS-CoV Urbani” value was determined as 0.4 and the “Binding of serum SARS-green to looped/cyclic peptide (PEPSCAN-ELISA)” value was 0.3. In assay [1], the “Binding of serum SARS-yellow to linear peptides of protein X1 of SARS-CoV Urbani” value came to 0.5 and the “Binding of serum SARS-yellow to looped/cyclic peptide (PEPSCAN-ELISA)” value was found to be 0.4. In assay [2], the “Binding of Control Serum Blood-Bank to Looped peptides” value is reported as 0.8, the “Binding of Control serum Blood-bank to linear peptides” value is 0.9, the “Binding of Control serum LUMC to linear peptides” value was 0.7 and the “Binding of Control serum LUMC to looped peptides” value is 0.7. Moreover, in assay [3], the “Binding of a rabbit serum to linear peptides” value was 0.1 and the “Binding of a rabbit serum to looped peptides” value was found to be 0.6.

On to ATIPLQASLPFGWLV, for which, in assay [1], the “Binding of serum 1a to linear peptides of protein X1 of SARS-CoV Urbani” value turned out to be 0.7, the “Binding of serum 1a to looped/cyclic peptide (PEPSCAN-ELISA)” value worked out at 0.6, the “Binding of serum 1b to linear peptides of protein X1 of SARS-CoV Urbani” value came to 0.5 and the “Binding of serum 1b to looped/cyclic peptide (PEPSCAN-ELISA)” value was 0.5. In assay [1], the “Binding of serum 2 to linear peptides of protein X1 of SARS-CoV Urbani” value was found to be 0.6, the “Binding of serum 2 to looped/cyclic peptide (PEPSCAN-ELISA)” value was found to be 0.6, the “Binding of serum 6 to linear peptides of protein X1 of SARS-CoV Urbani” value is recorded as 0.6 and the “Binding of serum 6 to looped/cyclic peptide (PEPSCAN-ELISA)” value was 0.4. In assay [1], the “Binding of serum 37 to linear peptides of protein X1 of SARS-CoV Urbani” value is 0.7, the “Binding of serum 37 to looped/cyclic peptide (PEPSCAN-ELISA)” value amounted to 0.7, the “Binding of serum 62 to linear peptides of protein X1 of SARS-CoV Urbani” value was 0.7 and the “Binding of serum 62 to looped/cyclic peptide (PEPSCAN-ELISA)” value was 0.7. In assay [1], the “Binding of serum London to linear peptides of protein X1 of SARS-CoV Urbani” value is given as 0.3, the “Binding of serum London to looped/cyclic peptide (PEPSCAN-ELISA)” value stood at 0.3, the “Binding of serum SARS-green to linear peptides of protein X1 of SARS-CoV Urbani” value is listed as 0.2 and the “Binding of serum SARS-green to looped/cyclic peptide (PEPSCAN-ELISA)” value was determined as 0.4. Further, in assay [1], the “Binding of serum SARS-yellow to linear peptides of protein X1 of SARS-CoV Urbani” value turned out to be 0.3 and the “Binding of serum SARS-yellow to looped/cyclic peptide (PEPSCAN-ELISA)” value was found to be 0.3. In assay [2], the “Binding of Control Serum Blood-Bank to Looped peptides” value came out at 0.7, the “Binding of Control serum Blood-bank to linear peptides” value is reported as 0.8, the “Binding of Control serum LUMC to linear peptides” value is listed as 0.5 and the “Binding of Control serum LUMC to looped peptides” value is on record as 0.7. In assay [3], the “Binding of a rabbit serum to linear peptides” value was determined as 0.1 and the “Binding of a rabbit serum to looped peptides” value was found to be 0.5.

(Values after patent publication US20070128217A1 (priority 2003, published 2007).)
